Data reported in the supplement of paper PMC13380429.

How the values were obtained:
Details in all cases: 72 h
HepG2 [1] = test: relative viability EC50 (midpoint between 100% and the lowest measured viability); higher = less toxic
Caco-2 [2] = test: as above
Calu-3 [3] = test: as above
U2OS [4] = test: as above
Vero E6 [5] = test: as above
HepG2 [6] = test: drug sensitivity score (DSS) for viability; higher = more toxic; extreme values may be limits of the assay
Caco-2 [7] = test: as above
Calu-3 [8] = test: as above
U2OS [9] = test: as above
Vero E6 [10] = test: as above
HepG2 [11] = test: cell viability relative to DMSO; higher = less toxic
Caco-2 [12] = test: as above
Calu-3 [13] = test: as above
U2OS [14] = test: as above
Vero E6 [15] = test: as above

SMILES | relative viability EC50 (HepG2 [1]) [µM] | relative viability EC50 (Caco-2 [2]) [µM] | relative viability EC50 (Calu-3 [3]) [µM] | relative viability EC50 (U2OS [4]) [µM] | relative viability EC50 (Vero E6 [5]) [µM] | drug sensitivity score (HepG2 [6]) | drug sensitivity score (Caco-2 [7]) | drug sensitivity score (Calu-3 [8]) | drug sensitivity score (U2OS [9]) | drug sensitivity score (Vero E6 [10]) | cell viability (HepG2 [11]; 1 nM) [%] | cell viability (HepG2 [11]; 10 nM) [%] | cell viability (HepG2 [11]; 100 nM) [%] | cell viability (HepG2 [11]; 1000 nM) [%] | cell viability (HepG2 [11]; 10000 nM) [%] | cell viability (Caco-2 [12]; 1 nM) [%] | cell viability (Caco-2 [12]; 10 nM) [%] | cell viability (Caco-2 [12]; 100 nM) [%] | cell viability (Caco-2 [12]; 1000 nM) [%] | cell viability (Caco-2 [12]; 10000 nM) [%] | cell viability (Calu-3 [13]; 1 nM) [%] | cell viability (Calu-3 [13]; 10 nM) [%] | cell viability (Calu-3 [13]; 100 nM) [%] | cell viability (Calu-3 [13]; 1000 nM) [%] | cell viability (Calu-3 [13]; 10000 nM) [%] | cell viability (U2OS [14]; 1 nM) [%] | cell viability (U2OS [14]; 10 nM) [%] | cell viability (U2OS [14]; 100 nM) [%] | cell viability (U2OS [14]; 1000 nM) [%] | cell viability (U2OS [14]; 10000 nM) [%] | cell viability (Vero E6 [15]; 1 nM) [%] | cell viability (Vero E6 [15]; 10 nM) [%] | cell viability (Vero E6 [15]; 100 nM) [%] | cell viability (Vero E6 [15]; 1000 nM) [%] | cell viability (Vero E6 [15]; 10000 nM) [%]
C#C[C@]1(O)CC[C@H]2[C@@H]3CCC4=CC(=O)CC[C@]4(C)[C@H]3CC[C@@]21C [ethisterone] | > 10 | > 10 | > 10 | > 10 | > 10 | 0 | 0 | 0 | 0 | 0 | 109 | 102 | 97.9 | 95.1 | 97.6 | 89.4 | 103 | 89.4 | 91.1 | 97.5 | 95.7 | 95.9 | 103 | 103 | 102 | 97.3 | 103 | 94.6 | 96.4 | 102 | 106 | 102 | 105 | 101 | 95.6
CCC(N)C(O)c1ccc(O)c(O)c1 (stereo not given) [ethylnorepinephrine] | > 10 | > 10 | > 10 | > 10 | > 10 | 0 | 0 | 0 | 0 | 0 | 100 | 110 | 98.7 | 109 | 102 | 93.7 | 95.5 | 103 | 89.9 | 95.1 | 101 | 99.4 | 108 | 91.9 | 104 | 100 | 94.8 | 98.4 | 98.4 | 99.3 | 93.9 | 102 | 104 | 107 | 112
CCOC(=O)Nc1ccc(NCc2ccc(F)cc2)nc1N [flupirtine] | > 10 | > 10 | > 10 | > 10 | > 10 | 0 | 0.6 | 0.5 | 0 | 0 | 89.2 | 101 | 103 | 98.4 | 99.8 | 106 | 102 | 99.6 | 87.7 | 96 | 105 | 113 | 98.6 | 88.2 | 91.3 | 100 | 99.1 | 101 | 101 | 99.5 | 104 | 111 | 98.2 | 98.6 | 97
Fc1ccc(C(c2ccccc2)(c2ccccc2F)n2ccnc2)cc1 (stereo not given) [flutrimazole] | > 10 | > 10 | > 10 | > 10 | > 10 | 0 | 0.7 | 0 | 0 | 0 | 106 | 110 | 95.7 | 96.5 | 97.7 | 122 | 112 | 96.1 | 98.9 | 80.5 | 102 | 92 | 107 | 90.4 | 106 | 108 | 107 | 107 | 102 | 97.1 | 97 | 102 | 108 | 118 | 99.2
CNC(=O)CN(CCN(CCN(CC(=O)[O-])CC(=O)NC)CC(=O)[O-])CC(=O)[O-].[Gd+3] [gadodiamide] | > 10 | > 10 | > 10 | > 10 | > 10 | 0 | 0 | 0 | 0 | 0 | 96.6 | 102 | 108 | 98.6 | 93.1 | 92.9 | 98.9 | 90.9 | 91.1 | 103 | 115 | 96.9 | 105 | 98.8 | 108 | 103 | 102 | 96.6 | 98.3 | 98.1 | 97.6 | 101 | 98.5 | 97.9 | 94.3
CC(C)=CCC[C@](C)(O[C@@H]1O[C@H](CO)[C@@H](O)[C@H](O)[C@H]1O)[C@H]1CC[C@]2(C)[C@@H]1[C@H](O)C[C@@H]1[C@@]3(C)CC[C@H](O)C(C)(C)[C@@H]3CC[C@]12C [ginsenoside-C-K] | > 10 | > 10 | > 10 | > 10 | > 10 | 0.7 | 0 | 0 | 0 | 0 | 108 | 111 | 106 | 92.7 | 85.9 | 91.7 | 104 | 94.5 | 96.2 | 102 | 89.3 | 97.3 | 98.9 | 101 | 99.4 | 99.4 | 94.7 | 99.7 | 97.5 | 99.3 | 109 | 99.7 | 103 | 98.4 | 98.1
O=C(O)c1ccc(S(=O)(=O)N(Cl)Cl)cc1 [halazone] | > 10 | > 10 | > 10 | > 10 | > 10 | 0 | 3.5 | 0 | 0 | 0 | 97.1 | 94.1 | 110 | 107 | 100 | 112 | 93.5 | 84.2 | 90.1 | 90.8 | 106 | 99.6 | 95.4 | 94.7 | 107 | 101 | 95.6 | 98.7 | 95.6 | 102 | 107 | 108 | 106 | 97 | 96.7
CCc1ccc(/C=C/C(=O)Nc2ccc(C(C)=O)cc2)o1 [heclin] | > 10 | > 10 | > 10 | > 10 | > 10 | 0.4 | 0 | 0.1 | 0 | 0 | 93.6 | 95.6 | 88.5 | 92.3 | 85.6 | 91.1 | 102 | 91.4 | 95.2 | 88.4 | 98.5 | 106 | 95 | 99.6 | 87.3 | 93.2 | 98.6 | 96.3 | 94.2 | 90.3 | 102 | 103 | 98.9 | 99.9 | 103
CC(O)COC[C@H]1O[C@@H]2O[C@H]3[C@H](O)[C@@H](O)[C@@H](O[C@H]4[C@H](O)[C@@H](O)[C@@H](O[C@H]5[C@H](O)[C@@H](O)[C@@H](O[C@H]6[C@H](O)[C@@H](O)[C@@H](O[C@H]7[C@H](O)[C@@H](O)[C@@H](O[C@H]8[C@H](O)[C@@H](O)[C@@H](O[C@H]1[C@H](O)[C@H]2O)O[C@@H]8COCC(C)O)O[C@@H]7COCC(C)O)O[C@@H]6COCC(C)O)O[C@@H]5COCC(C)O)O[C@@H]4COCC(C)O)O[C@@H]3COCC(C)O (stereo partly drawn) [hydroxypropyl-beta-cyclodextrin] | > 10 | > 10 | > 10 | > 10 | > 10 | 0 | 0 | 0 | 0 | 0 | 98.6 | 97.5 | 98.3 | 95.9 | 98.2 | 92.3 | 97.1 | 103 | 100 | 95.7 | 100 | 91.5 | 94.8 | 98.8 | 100 | 97.5 | 98.5 | 104 | 98.2 | 98.4 | 104 | 96.1 | 102 | 101 | 103
CSCC1CN(/N=C/c2ccc([N+](=O)[O-])o2)C(=O)O1 (stereo not given) [inimur] | > 10 | > 10 | > 10 | > 10 | > 10 | 0 | 0 | 0 | 0 | 0 | 100 | 93.8 | 96.5 | 94.3 | 93 | 90.6 | 97.7 | 92.7 | 94.5 | 89.4 | 89.9 | 97.4 | 96.8 | 104 | 101 | 98.2 | 101 | 95.8 | 101 | 105 | 96.6 | 96.4 | 89.7 | 89 | 95
CN[C@@H]1[C@@H](O)[C@@H](O[C@@H]2[C@@H](O)[C@H](O[C@H]3O[C@H](CN)[C@@H](O)[C@H](O)[C@H]3O)[C@@H](N)C[C@H]2NC(=O)[C@@H](O)CN)OC[C@]1(C)O [isepamicin] | > 10 | > 10 | > 10 | > 10 | > 10 | 0 | 0 | 0 | 0 | 0 | 98.8 | 95.8 | 96.6 | 107 | 103 | 89.7 | 97 | 89.1 | 98 | 91.8 | 96.4 | 90.7 | 91.5 | 92.6 | 99.3 | 97.6 | 100 | 94.6 | 99.1 | 102 | 91.5 | 98.3 | 96.6 | 95.5 | 101
Cc1cc(NC(=O)C2=C(O)c3ccccc3S(=O)(=O)N2C)no1 [isoxicam] | > 10 | > 10 | > 10 | > 10 | > 10 | 0 | 0 | 0 | 0 | 0 | 101 | 84.5 | 87.3 | 103 | 100 | 99.4 | 94.8 | 97.9 | 96.2 | 109 | 113 | 109 | 97.7 | 98.1 | 104 | 95.2 | 101 | 98.4 | 105 | 98.3 | 95.3 | 94.1 | 102 | 102 | 106
CCn1c(=O)c2c(nc(/C=C/c3ccc(OC)c(OC)c3)n2C)n(CC)c1=O [istradefylline] | > 10 | > 10 | > 10 | > 10 | > 10 | 0 | 0 | 0 | 0 | 0 | 97.1 | 94.1 | 101 | 98.9 | 112 | 97.7 | 89.7 | 104 | 103 | 106 | 87.5 | 93.8 | 94.4 | 101 | 103 | 102 | 97.9 | 101 | 104 | 102 | 103 | 97.1 | 93.6 | 96.4 | 104
CN1CCC(=C2c3ccccc3CC(=O)c3sccc32)CC1 [ketotifen] | > 10 | > 10 | > 10 | > 10 | > 10 | 0.8 | 0.1 | 0 | 0 | 0.4 | 98.5 | 96.9 | 112 | 92.9 | 84.9 | 110 | 101 | 94.1 | 89.7 | 96.3 | 108 | 93 | 101 | 95.5 | 105 | 101 | 99.3 | 103 | 96 | 103 | 99.4 | 93.6 | 96.4 | 98.4 | 84.9
